Test results as given in article PMC9279378, “Mode of action of fluopyram in plant-parasitic nematodes” (Scientific Reports, 2022).

Legend:
Settings in all cases: pH 7.2; 20 µM decylubiquinone, 100 µM DCPIP, 0.33% succinate, 1 µM antimycin, 4% DMSO
[1] = target: T1, SDH (mitochondrial complex II) of earthworm; assay: succinate:ubiquinone reductase assay, DCPIP reduction at […] nm, mitochondrial protein; assay type: biochemical, Eisenia andrei
T1 construct: gene SDHB; native complex II in mitochondrial preparation from earthworm; with Succinate dehydrogenase [ubiquinone] flavoprotein subunit, mitochondrial

[2] = target: T2, C. elegans SDH (mitochondrial complex II) (Caenorhabditis elegans, UniProt O62215+P41956+Q09545); assay: as above; assay type: biochemical
T2 construct: gene sdhb-1; native complex II in mitochondrial preparation; wild-type strain N2 named for cultures, not explicitly for the mitochondria; with Succinate dehydrogenase [ubiquinone] flavoprotein subunit, mitochondrial
T2 sequence (Q09545 36-298): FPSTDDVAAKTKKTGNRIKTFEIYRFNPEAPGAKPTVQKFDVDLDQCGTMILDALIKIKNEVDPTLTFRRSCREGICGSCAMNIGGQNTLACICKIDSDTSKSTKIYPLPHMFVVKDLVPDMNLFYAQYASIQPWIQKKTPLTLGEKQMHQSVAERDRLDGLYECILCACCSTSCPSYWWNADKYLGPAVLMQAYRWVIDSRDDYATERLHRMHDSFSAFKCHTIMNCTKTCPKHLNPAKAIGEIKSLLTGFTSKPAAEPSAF
T2 sequence (P41956 31-182): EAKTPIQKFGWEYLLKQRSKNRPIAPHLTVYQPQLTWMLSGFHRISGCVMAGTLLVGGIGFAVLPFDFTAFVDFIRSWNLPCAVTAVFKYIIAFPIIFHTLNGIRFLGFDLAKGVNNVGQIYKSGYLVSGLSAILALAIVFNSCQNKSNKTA
T2 sequence (O62215 32-145): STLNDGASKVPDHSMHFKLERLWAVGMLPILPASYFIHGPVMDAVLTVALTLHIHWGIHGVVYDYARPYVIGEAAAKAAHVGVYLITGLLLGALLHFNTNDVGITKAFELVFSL
T2 sequence (Q09508 32-646 partner): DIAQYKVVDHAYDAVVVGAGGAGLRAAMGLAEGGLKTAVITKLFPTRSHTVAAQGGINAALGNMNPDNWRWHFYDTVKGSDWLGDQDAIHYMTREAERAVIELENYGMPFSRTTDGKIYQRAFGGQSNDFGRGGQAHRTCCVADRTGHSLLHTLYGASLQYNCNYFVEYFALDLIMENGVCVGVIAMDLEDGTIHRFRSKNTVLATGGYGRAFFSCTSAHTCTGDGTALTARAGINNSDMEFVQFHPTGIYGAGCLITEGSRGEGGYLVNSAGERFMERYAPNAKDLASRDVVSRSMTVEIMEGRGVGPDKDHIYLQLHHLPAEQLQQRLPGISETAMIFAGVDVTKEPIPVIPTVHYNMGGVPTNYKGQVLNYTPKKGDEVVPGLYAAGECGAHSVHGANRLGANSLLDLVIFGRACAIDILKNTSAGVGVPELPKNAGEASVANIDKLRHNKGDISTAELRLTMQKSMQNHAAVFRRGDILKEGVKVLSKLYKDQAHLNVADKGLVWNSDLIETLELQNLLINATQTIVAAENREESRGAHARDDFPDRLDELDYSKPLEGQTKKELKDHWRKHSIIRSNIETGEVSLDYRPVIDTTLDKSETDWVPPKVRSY

[3] = target: T3, SDH (mitochondrial complex II) of rat (Rattus norvegicus, UniProt P21913+Q641Z9+Q6PCT8)
T3 construct: gene Sdhb
T3 sequence (P21913 31-282): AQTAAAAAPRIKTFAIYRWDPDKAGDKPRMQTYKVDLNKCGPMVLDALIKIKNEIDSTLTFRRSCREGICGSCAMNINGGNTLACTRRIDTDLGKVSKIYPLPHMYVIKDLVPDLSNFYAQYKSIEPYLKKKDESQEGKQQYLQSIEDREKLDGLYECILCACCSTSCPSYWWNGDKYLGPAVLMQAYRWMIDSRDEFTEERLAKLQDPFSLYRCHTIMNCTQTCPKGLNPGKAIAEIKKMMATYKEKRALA
T3 sequence (Q641Z9 30-169): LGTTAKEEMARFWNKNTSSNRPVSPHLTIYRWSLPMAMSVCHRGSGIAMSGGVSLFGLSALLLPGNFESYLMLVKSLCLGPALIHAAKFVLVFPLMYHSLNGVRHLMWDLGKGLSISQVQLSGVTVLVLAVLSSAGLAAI
T3 sequence (Q6PCT8 57-159): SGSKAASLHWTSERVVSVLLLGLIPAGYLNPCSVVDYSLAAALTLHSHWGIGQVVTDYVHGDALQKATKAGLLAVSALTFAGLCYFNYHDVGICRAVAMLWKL
T3 sequence (Q920L2 35-656 partner): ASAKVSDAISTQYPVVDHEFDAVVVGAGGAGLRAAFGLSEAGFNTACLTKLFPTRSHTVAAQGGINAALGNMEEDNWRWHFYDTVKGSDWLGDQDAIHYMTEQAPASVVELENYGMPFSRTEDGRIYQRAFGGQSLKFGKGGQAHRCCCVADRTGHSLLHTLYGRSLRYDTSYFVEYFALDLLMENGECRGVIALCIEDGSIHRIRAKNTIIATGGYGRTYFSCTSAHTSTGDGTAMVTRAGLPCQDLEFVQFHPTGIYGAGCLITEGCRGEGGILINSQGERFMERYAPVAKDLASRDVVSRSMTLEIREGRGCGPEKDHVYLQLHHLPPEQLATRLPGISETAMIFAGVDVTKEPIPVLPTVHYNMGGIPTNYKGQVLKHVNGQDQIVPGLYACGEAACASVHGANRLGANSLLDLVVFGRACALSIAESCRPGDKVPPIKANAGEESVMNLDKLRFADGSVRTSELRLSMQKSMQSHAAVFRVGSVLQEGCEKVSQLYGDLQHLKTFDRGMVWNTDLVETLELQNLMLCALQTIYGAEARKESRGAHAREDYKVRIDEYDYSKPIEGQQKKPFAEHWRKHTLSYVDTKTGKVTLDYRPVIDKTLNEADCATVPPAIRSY

SMILES	pIC50 [1]	pIC50 [2]	pIC50 [3]
COc1[nH]c(=O)c(C(=O)[C@@H](C)C[C@H](C)[C@@H](Cl)CCl)c(O)c1OC [Atpenin A5]	8.1	7.7	8.2
O=C(NCCc1ncc(C(F)(F)F)cc1Cl)c1ccccc1C(F)(F)F [fluopyram]	–	8.5	–
CC(C)Oc1cccc(NC(=O)c2ccccc2C(F)(F)F)c1 [flutolanil]	6.0	6.5	–
